One experiment concerns the target FAAH (Mus musculus (Mouse), UniProt O08914). Kind of experiment: Mouse brain proteomes from inhibitor treated mice (oral gavage, sacrificed 4 h after administration, ABPP analysis), FAAH. Particulars: 5 mg/kg oral gavage.
The next experiment addresses MAGL (Mus musculus (Mouse), UniProt O35678). In words: Mouse brain proteomes from inhibitor treated mice (oral gavage, sacrificed 4 h after administration, ABPP analysis). As to conditions: 5 mg/kg oral gavage.

MAGL, sequence (O35678 whole entry): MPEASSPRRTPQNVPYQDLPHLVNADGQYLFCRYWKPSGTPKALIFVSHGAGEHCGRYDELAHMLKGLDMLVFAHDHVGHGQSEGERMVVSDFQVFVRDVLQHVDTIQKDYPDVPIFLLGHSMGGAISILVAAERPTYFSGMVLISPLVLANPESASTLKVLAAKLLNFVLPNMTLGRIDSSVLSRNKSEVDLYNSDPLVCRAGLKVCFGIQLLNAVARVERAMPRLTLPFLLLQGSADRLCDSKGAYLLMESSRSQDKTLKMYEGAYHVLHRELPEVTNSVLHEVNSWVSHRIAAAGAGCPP
FAAH, sequence (O08914 whole entry): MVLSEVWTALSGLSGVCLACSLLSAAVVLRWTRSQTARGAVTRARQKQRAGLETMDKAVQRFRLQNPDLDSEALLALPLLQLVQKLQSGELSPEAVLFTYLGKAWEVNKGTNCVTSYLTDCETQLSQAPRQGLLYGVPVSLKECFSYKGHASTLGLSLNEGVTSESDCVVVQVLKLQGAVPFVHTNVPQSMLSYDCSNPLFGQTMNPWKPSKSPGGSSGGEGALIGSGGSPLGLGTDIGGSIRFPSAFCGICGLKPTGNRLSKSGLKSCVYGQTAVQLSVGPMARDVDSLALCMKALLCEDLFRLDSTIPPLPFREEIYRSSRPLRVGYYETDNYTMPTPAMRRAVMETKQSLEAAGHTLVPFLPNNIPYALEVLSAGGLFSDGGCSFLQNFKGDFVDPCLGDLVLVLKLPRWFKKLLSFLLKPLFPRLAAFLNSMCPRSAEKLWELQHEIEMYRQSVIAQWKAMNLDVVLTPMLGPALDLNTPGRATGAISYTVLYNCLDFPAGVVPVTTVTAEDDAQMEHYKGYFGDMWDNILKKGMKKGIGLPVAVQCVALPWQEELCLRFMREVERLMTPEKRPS
Description for FAAH: (§1) Preparation of Mouse Brain Proteomes from Inhibitor Treated Mice.
(§2) Inhibitors were administered to wild-type C57Bl/6J by oral gavage in a vehicle of polyethylene glycol.
Description for MAGL: as §1, §2

On to `CN(Cc1ccc(C(F)(F)F)cc1N1CCOCC1)C1(C)CCN(C(=O)n2ccc(C(=O)O)n2)CC1` [Example 4, 1-(4-Methyl-4-(methyl(2-morpholino-4-(trifluoromethyl)benzyl)amino)piperidine-1-carbonyl)-1H-pyrazole-3-carboxylic Acid], for which the “FAAH % inh. 5 mg/kg (mouse)” value on FAAH is “D (% inhibition is greater than or equal to 0% and less than 25%)”. The “MAGL % inh. 5 mg/kg (mouse)” value on MAGL was “D (% inhibition is greater than or equal to 0% and less than 25%)”.
For `O=C(O)c1ccn(C(=O)N2CCN(Cc3ccc(C(F)(F)F)cc3N3CCC(O)CC3)CC2)n1` [Example 120, 1-(4-(2-(4-hydroxypiperidin-1-yl)-4-(trifluoromethyl)benzyl)piperazine-1-carbonyl)-1H-pyrazole-3-carboxylic acid], the “FAAH % inh. 5 mg/kg (mouse)” value at FAAH was “D (% inhibition is greater than or equal to 0% and less than 25%)”. Further, on MAGL, the “MAGL % inh. 5 mg/kg (mouse)” value is “D (% inhibition is greater than or equal to 0% and less than 25%)”.
As for `O=C(O)c1ccn(C(=O)N2C[C@H]3C[C@H](OCc4cccc(Oc5ccc(Cl)cc5)c4)C[C@H]3C2)n1` [Example 158, 1-(trans-5-((3-(4-chlorophenoxy)benzyl)oxy)octa-hydrocyclopenta[c]pyrrole-2-carbonyl)-1H-pyrazole-3-carboxylic acid], at FAAH, the “FAAH % inh. 5 mg/kg (mouse)” value was “D (% inhibition is greater than or equal to 0% and less than 25%)”. The “MAGL % inh. 5 mg/kg (mouse)” value on MAGL was “D (% inhibition is greater than or equal to 0% and less than 25%)”.
Turning to `O=C(O)c1ccn(C(=O)N2CCN(Cc3cccc(Oc4cc(C(F)(F)F)ccn4)c3)CC2)n1` [Example 57, 1-(4-(3-((4-(trifluoromethyl)pyridin-2-yl)oxy)benzyl)piperazine-1-carbonyl)-1H-pyrazole-3-carboxylic acid], at FAAH, the “FAAH % inh. 5 mg/kg (mouse)” value was “D (% inhibition is greater than or equal to 0% and less than 25%)”. The “MAGL % inh. 5 mg/kg (mouse)” value at MAGL was “D (% inhibition is greater than or equal to 0% and less than 25%)”.
Consider `O=C(O)c1ccn(C(=O)N2CCN(Cc3cccc(Cl)c3N3CC4COCC4C3)CC2)n1` (stereo not drawn) [Example 211, 1-(4-(3-chloro-2-(tetrahydro-1H-furo[3,4-c]pyrrol-5(3H)-yl)benzyl)piperazine-1-carbonyl)-1H-pyrazole-3-carboxylic acid], for which the “FAAH % inh. 5 mg/kg (mouse)” value at FAAH is “D (% inhibition is greater than or equal to 0% and less than 25%)”. Moreover, the “MAGL % inh. 5 mg/kg (mouse)” value on MAGL was “D (% inhibition is greater than or equal to 0% and less than 25%)”.
On to `O=C(O)c1ccn(C(=O)N2CCN(Cc3ccc(C(F)(F)F)cc3N3CC[C@@H](F)C3)CC2)n1` [Example 101, (R)-1-(4-(2-(3-fluoropyrrolidin-1-yl)-4-(trifluoromethyl)benzyl)piperazine-1-carbonyl)-1H-pyrazole-3-carboxylic acid], for which, on FAAH, the “FAAH % inh. 5 mg/kg (mouse)” value is “D (% inhibition is greater than or equal to 0% and less than 25%)”. Also, the “MAGL % inh. 5 mg/kg (mouse)” value on MAGL is “D (% inhibition is greater than or equal to 0% and less than 25%)”.
In the case of `O=C(O)c1ccn(C(=O)N2CCN(Cc3ccc(C(F)(F)F)c(N4C5CCC4COC5)c3)CC2)n1` [Example 40, 1-(4-(3-(3-oxa-8-azabicyclo[3.2.1]octan-8-yl)-4-(trifluoromethyl)benzyl)piperazine-1-carbonyl)-1H-pyrazole-3-carboxylic acid], on FAAH, the “FAAH % inh. 5 mg/kg (mouse)” value is “D (% inhibition is greater than or equal to 0% and less than 25%)”. The “MAGL % inh. 5 mg/kg (mouse)” value at MAGL was “D (% inhibition is greater than or equal to 0% and less than 25%)”.
In the case of `O=C(O)c1ccn(C(=O)N2CCN(Cc3cccc(Oc4ccc(Cl)cc4)c3)CC2)n1` [Example 98, 1-(4-(3-(4-chlorophenoxy)benzyl)piperazine-1-carbonyl)-1H-pyrazole-3-carboxylic acid], the “FAAH % inh. 5 mg/kg (mouse)” value on FAAH was “D (% inhibition is greater than or equal to 0% and less than 25%)”. Further, the “MAGL % inh. 5 mg/kg (mouse)” value at MAGL was “D (% inhibition is greater than or equal to 0% and less than 25%)”.
With `O=C(O)c1ccn(C(=O)N2CCN(Cc3cccc(Cl)c3N3C4CCC3COC4)CC2)n1` [Example 212, 1-(4-(2-(3-oxa-8-azabicyclo[3.2.1]octan-8-yl)-3-chlorobenzyl)piper-azine-1-carbonyl)-1H-pyrazole-3-carboxylic acid], the “FAAH % inh. 5 mg/kg (mouse)” value on FAAH was “D (% inhibition is greater than or equal to 0% and less than 25%)”. At MAGL, the “MAGL % inh. 5 mg/kg (mouse)” value is “D (% inhibition is greater than or equal to 0% and less than 25%)”.
As for `O=C(O)c1nn(C(=O)N2CCC3(CCN(Cc4cc(Cl)ccc4C(F)(F)F)C3)CC2)cc1Cl` [Example 133, 4-chloro-1-(2-(5-chloro-2-(trifluoromethyl)benzyl)-2,8-diazaspiro[4.5]decane-8-carbonyl)-1H-pyrazole-3-carboxylic acid], the “FAAH % inh. 5 mg/kg (mouse)” value on FAAH is “D (% inhibition is greater than or equal to 0% and less than 25%)”. Further, at MAGL, the “MAGL % inh. 5 mg/kg (mouse)” value is “D (% inhibition is greater than or equal to 0% and less than 25%)”.
Consider `O=C(O)c1ccn(C(=O)N2CC3CN(Cc4cccc(Oc5ccc(Cl)cc5)c4)CC3C2)n1` (stereo not drawn) [Example 116, 1-(5-(3-(4-chlorophenoxy)benzyl)octahydro-pyrrolo[3,4-c]pyrrole-2-carbonyl)-1H-pyrazole-3-carboxylic acid], for which the “FAAH % inh. 5 mg/kg (mouse)” value at FAAH was “D (% inhibition is greater than or equal to 0% and less than 25%)”. Further, the “MAGL % inh. 5 mg/kg (mouse)” value at MAGL was “D (% inhibition is greater than or equal to 0% and less than 25%)”.
`O=C(O)c1ccn(C(=O)N2CCN(Cc3ccc(C(F)(F)F)cc3Cl)CC2)n1` [Example 91, 1-(4-(2-chloro-4-(trifluoromethyl)benzyl)piperazine-1-carbonyl)-1H-pyrazole-3-carboxylic acid]: the “FAAH % inh. 5 mg/kg (mouse)” value on FAAH was “D (% inhibition is greater than or equal to 0% and less than 25%)”. The “MAGL % inh. 5 mg/kg (mouse)” value on MAGL is “D (% inhibition is greater than or equal to 0% and less than 25%)”.
On to `O=C(O)c1ccn(C(=O)N2CCN(Cc3ccc(C(F)(F)F)c(N4CCCC4)c3)CC2)n1` [Example 7, 1-(4-(3-(Pyrrolidin-1-yl)-4-(trifluoromethyl)benzyl)piperazine-1-carbonyl)-1H-pyrazole-3-carboxylic Acid], for which the “FAAH % inh. 5 mg/kg (mouse)” value at FAAH is “D (% inhibition is greater than or equal to 0% and less than 25%)”. In addition, the “MAGL % inh. 5 mg/kg (mouse)” value at MAGL was “D (% inhibition is greater than or equal to 0% and less than 25%)”.
As for `C[C@H]1CCCN1c1cc(C(F)(F)F)ccc1CN1CCN(C(=O)n2ccc(C(=O)O)n2)CC1` [Example 104, (S)-1-(4-(2-(2-methylpyrrolidin-1-yl)-4-(trifluoromethyl)benzyl)piperazine-1-carbonyl)-1H-pyrazole-3-carboxylic acid], the “FAAH % inh. 5 mg/kg (mouse)” value on FAAH is “D (% inhibition is greater than or equal to 0% and less than 25%)”. The “MAGL % inh. 5 mg/kg (mouse)” value on MAGL was “D (% inhibition is greater than or equal to 0% and less than 25%)”.
`O=C(O)c1ccn(C(=O)N2CC3CN(Cc4cc(Cl)cc(C(F)(F)F)c4)CC3C2)n1` (stereo not drawn) [Example 124, 1-(5-(3-chloro-5-(trifluoromethyl)benzyl)octahydro-pyrrolo[3,4-c]pyrrole-2-carbonyl)-1H-pyrazole-3-carboxylic acid]: on FAAH, the “FAAH % inh. 5 mg/kg (mouse)” value is “C (% inhibition is greater than or equal to 25% and less than 50%)”. In addition, on MAGL, the “MAGL % inh. 5 mg/kg (mouse)” value is “D (% inhibition is greater than or equal to 0% and less than 25%)”.
With `Cc1c(CN2CCN(C(=O)n3ccc(C(=O)O)n3)CC2)[nH]c2ccc(Cl)cc12` [Example 188, 1-(4-((5-chloro-3-methyl-1H-indol-2-yl)methyl)piperazine-1-carbonyl)-1H-pyrazole-3-carboxylic acid], at FAAH, the “FAAH % inh. 5 mg/kg (mouse)” value was “D (% inhibition is greater than or equal to 0% and less than 25%)”. For the same compound, the “MAGL % inh. 5 mg/kg (mouse)” value on MAGL was “D (% inhibition is greater than or equal to 0% and less than 25%)”.
`O=C(O)c1ccn(C(=O)N2CCN(Cc3ccc(Cl)cc3N3CCCC3)CC2)n1` [Example 107, 1-(4-(4-chloro-2-(pyrrolidin-1-yl)benzyl)piperazine-1-carbonyl)-1H-pyrazole-3-carboxylic acid]: the “FAAH % inh. 5 mg/kg (mouse)” value at FAAH is “D (% inhibition is greater than or equal to 0% and less than 25%)”. Further, the “MAGL % inh. 5 mg/kg (mouse)” value on MAGL is “D (% inhibition is greater than or equal to 0% and less than 25%)”.
As to `O=C(O)c1ccn(C(=O)N2CCC3(CCN(Cc4cc(Cl)ccc4C(F)(F)F)C3)CC2)n1` [Example 43, 1-(2-(5-chloro-2-(trifluoromethyl)benzyl)-2,8-diazaspiro[4.5]decane-8-carbonyl)-1H-pyrazole-3-carboxylic acid], at FAAH, the “FAAH % inh. 5 mg/kg (mouse)” value was “D (% inhibition is greater than or equal to 0% and less than 25%)”. Further, at MAGL, the “MAGL % inh. 5 mg/kg (mouse)” value is “D (% inhibition is greater than or equal to 0% and less than 25%)”.
In the case of `O=C(O)c1ccn(C(=O)N2CCN(Cc3ccc(C(F)(F)F)cc3N3CCCCC3)CC2)n1` [Example 100, 1-(4-(2-(piperidin-1-yl)-4-(trifluoromethyl)benzyl)piperazine-1-carbonyl)-1H-pyrazole-3-carboxylic acid], at FAAH, the “FAAH % inh. 5 mg/kg (mouse)” value was “D (% inhibition is greater than or equal to 0% and less than 25%)”. Besides, the “MAGL % inh. 5 mg/kg (mouse)” value at MAGL was “D (% inhibition is greater than or equal to 0% and less than 25%)”.
For the compound `O=C(O)c1ccn(C(=O)N2CCN(Cc3ccc(C(F)(F)F)cc3N3C4CCC3COC4)CC2)n1` [Example 118, 1-(4-(2-(3-oxa-8-azabicyclo[3.2.1]octan-8-yl)-4-(trifluoromethyl)benzyl)piperazine-1-carbonyl)-1H-pyrazole-3-carboxylic acid], on FAAH, the “FAAH % inh. 5 mg/kg (mouse)” value was “D (% inhibition is greater than or equal to 0% and less than 25%)”. In addition, the “MAGL % inh. 5 mg/kg (mouse)” value at MAGL is “D (% inhibition is greater than or equal to 0% and less than 25%)”.
On to `COC1CCN(c2cc(C(F)(F)F)ccc2CN2CCN(C(=O)n3ccc(C(=O)O)n3)CC2)CC1` [Example 12, 1-(4-(2-(4-Methoxypiperidin-1-yl)-4-(trifluoromethyl)benzyl)piperazine-1-carbonyl)-1H-pyrazole-3-carboxylic Acid], for which the “FAAH % inh. 5 mg/kg (mouse)” value on FAAH was “D (% inhibition is greater than or equal to 0% and less than 25%)”. Further, the “MAGL % inh. 5 mg/kg (mouse)” value at MAGL was “D (% inhibition is greater than or equal to 0% and less than 25%)”.

The values above are taken from patent US11655217B2, “Pyrazole MAGL inhibitors” (H. Lundbeck A/S, priority 2017, dated 2023).
